These results are taken from publication PMC10606151, “The Functional Characteristics and Soluble Expression of Saffron CsCCD2” (International Journal of Molecular Sciences, 2023).

The target in test [1] is T1, CsCCD2 (TRX-CsCCD2) (Crocus sativus, UniProt A0A075W695).
T1 construct: gene CCD2; CsCCD2 in pET32a, N-terminal TrxA-6xHis-thrombin-S tag fusion, tags kept; synthetic gene with synonymous G1179T; E. coli BL21(DE3) accumulating carotenoids
Put plainly: in vivo cleavage in zeaxanthin-producing E. coli, UPLC and UPLC-MS/MS of crocetin dialdehyde. Type of test: cell-based. The following applies: E. coli BL21(DE3) with pACCAR25ΔcrtX, 0.3 mM IPTG, 16 °C, 24 h; product crocetin dialdehyde.

Test [2] concerns the target T1, CsCCD2 (TRX-CsCCD2). Kind of test: in vivo cleavage in β-carotene-producing E. coli, UPLC and UPLC-MS/MS of crocetin dialdehyde. The format is cell-based. The following applies: E. coli BL21(DE3) with pACCAR16Δcrt, 0.3 mM IPTG, 16 °C, 24 h; product named crocetin dialdehyde.

T1 sequence (A0A075W695 entry or part of it): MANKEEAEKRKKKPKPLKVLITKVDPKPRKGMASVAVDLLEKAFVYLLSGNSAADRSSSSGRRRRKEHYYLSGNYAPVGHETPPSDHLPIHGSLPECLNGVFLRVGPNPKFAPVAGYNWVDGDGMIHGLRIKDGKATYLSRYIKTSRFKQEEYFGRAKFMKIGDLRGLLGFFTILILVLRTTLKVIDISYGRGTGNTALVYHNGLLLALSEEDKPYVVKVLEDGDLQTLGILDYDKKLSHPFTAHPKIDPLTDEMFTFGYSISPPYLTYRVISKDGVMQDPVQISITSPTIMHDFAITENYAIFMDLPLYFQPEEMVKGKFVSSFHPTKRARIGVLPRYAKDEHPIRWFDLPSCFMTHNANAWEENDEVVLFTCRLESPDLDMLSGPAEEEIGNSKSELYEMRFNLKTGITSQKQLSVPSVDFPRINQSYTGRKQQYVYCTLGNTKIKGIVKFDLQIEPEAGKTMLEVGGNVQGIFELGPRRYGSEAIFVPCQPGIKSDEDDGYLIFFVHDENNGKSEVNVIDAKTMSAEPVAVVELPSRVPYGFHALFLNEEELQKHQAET

Regarding `CC1=C(/C=C/C(C)=C/C=C/C(C)=C/C=C/C=C(C)/C=C/C=C(C)/C=C/C2=C(C)C[C@@H](O)CC2(C)C)C(C)(C)C[C@H](O)C1` [zeaxanthin], the “in vivo cleavage in zeaxanthin-producing E. coli, UPLC and UPLC-MS/MS of croceti” value on CsCCD2 (TRX-CsCCD2) [1] is “These results revealed that TRX-CsCCD2 cleaved zeaxanthin, β-carotene, and lycopene”. For the compound `CC1=C(/C=C/C(C)=C/C=C/C(C)=C/C=C/C=C(C)/C=C/C=C(C)/C=C/C2=C(C)CCCC2(C)C)C(C)(C)CCC1` [β-carotene], the “in vivo cleavage in β-carotene-producing E. coli, UPLC and UPLC-MS/MS of croceti” value on CsCCD2 (TRX-CsCCD2) [2] was “These results revealed that TRX-CsCCD2 cleaved zeaxanthin, β-carotene, and lycopene”.
